Source: ChEMBL document CHEMBL1201862, “PubChem BioAssay data set” (2004)
Calls of active or inactive are those of the source.

Columns and labels:
[1] = target: Intestinal-type alkaline phosphatase (Homo sapiens, UniProt P09923); experiment: activation of human intestinal alkaline phosphatase – biochemical, dose response (AID 488873); format: functional
[2] = target: Large T antigen (Simian virus 40, UniProt P03070); format: functional, Betapolyomavirus macacae;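 further: Confirmatory-stage PubChem screen for compounds that inhibit SV40 T antigen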
Large T antigen, sequence (P03070 whole entry): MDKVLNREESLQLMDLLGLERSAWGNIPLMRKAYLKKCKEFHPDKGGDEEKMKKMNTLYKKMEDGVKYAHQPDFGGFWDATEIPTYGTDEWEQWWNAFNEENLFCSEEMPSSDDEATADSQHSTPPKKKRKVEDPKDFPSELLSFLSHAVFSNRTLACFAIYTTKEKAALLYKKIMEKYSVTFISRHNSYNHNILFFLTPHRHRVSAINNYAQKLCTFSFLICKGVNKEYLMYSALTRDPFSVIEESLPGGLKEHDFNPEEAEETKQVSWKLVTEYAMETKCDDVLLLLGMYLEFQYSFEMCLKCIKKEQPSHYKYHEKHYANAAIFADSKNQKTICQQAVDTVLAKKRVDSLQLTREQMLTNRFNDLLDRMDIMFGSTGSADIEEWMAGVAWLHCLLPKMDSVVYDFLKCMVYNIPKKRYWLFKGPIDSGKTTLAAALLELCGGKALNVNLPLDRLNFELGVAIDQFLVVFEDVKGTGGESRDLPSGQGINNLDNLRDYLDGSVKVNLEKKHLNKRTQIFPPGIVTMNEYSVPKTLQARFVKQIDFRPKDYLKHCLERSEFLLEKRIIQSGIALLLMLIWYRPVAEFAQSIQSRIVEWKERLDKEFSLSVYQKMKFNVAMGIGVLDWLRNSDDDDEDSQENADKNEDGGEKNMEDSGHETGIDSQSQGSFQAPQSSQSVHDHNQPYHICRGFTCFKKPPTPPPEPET

[3] = target: T1, Alkaline phosphatase, tissue-nonspecific isozyme (Homo sapiens, UniProt P05186); experiment: activation of tissue-nonspecific alkaline phosphatase – biochemical, TNAP isozyme, mouse IAP uHTS hits, selectivity assay for mouse IAP activator project, dose response (AID 488880); format: functional
T1 sequence (P05186 whole entry): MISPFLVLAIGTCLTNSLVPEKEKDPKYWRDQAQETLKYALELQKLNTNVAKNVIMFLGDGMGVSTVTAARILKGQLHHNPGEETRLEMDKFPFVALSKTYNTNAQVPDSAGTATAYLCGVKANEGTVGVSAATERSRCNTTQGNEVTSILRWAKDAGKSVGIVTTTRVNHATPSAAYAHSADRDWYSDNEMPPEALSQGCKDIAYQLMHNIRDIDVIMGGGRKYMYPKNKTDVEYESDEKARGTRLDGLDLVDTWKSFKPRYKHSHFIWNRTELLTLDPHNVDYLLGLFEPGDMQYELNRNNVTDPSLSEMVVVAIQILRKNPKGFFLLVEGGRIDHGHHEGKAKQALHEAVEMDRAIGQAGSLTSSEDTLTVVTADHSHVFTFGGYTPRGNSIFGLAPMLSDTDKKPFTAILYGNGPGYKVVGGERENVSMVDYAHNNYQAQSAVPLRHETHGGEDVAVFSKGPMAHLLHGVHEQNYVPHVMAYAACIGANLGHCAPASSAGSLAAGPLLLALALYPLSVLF

[4] = target: Intestinal-type alkaline phosphatase (Mus musculus, UniProt P24822); experiment: mouse intestinal alkaline phosphatase activators, dose response, biochemical, luminescence, uHTS hits (AID 488783); format: functional
Intestinal-type alkaline phosphatase (Mus musculus, UniProt P24822), sequence (P24822 whole entry): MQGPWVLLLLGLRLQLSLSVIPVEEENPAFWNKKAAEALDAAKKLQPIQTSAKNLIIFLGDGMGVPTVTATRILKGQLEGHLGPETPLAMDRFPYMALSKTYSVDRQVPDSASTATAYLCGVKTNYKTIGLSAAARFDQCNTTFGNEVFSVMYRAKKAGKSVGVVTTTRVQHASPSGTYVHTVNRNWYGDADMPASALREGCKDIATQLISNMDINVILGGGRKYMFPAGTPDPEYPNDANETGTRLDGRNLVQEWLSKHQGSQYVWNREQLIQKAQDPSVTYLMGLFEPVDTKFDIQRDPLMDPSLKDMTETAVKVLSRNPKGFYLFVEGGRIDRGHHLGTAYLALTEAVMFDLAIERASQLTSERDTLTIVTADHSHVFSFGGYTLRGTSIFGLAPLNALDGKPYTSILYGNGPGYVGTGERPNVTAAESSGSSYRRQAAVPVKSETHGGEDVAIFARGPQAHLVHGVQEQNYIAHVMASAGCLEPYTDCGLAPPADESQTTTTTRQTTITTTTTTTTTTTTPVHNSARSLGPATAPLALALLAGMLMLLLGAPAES

[5] = target: T2, SUMO-activating enzyme (Homo sapiens, UniProt Q9UBT2); experiment: blockers of UBC9-mediated SUMO conjugation – biochemical, AlphaScreen, SUMOylation inhibitor project, confirmation (AID 2018); format: functional
T2 sequence (Q9UBE0 whole entry): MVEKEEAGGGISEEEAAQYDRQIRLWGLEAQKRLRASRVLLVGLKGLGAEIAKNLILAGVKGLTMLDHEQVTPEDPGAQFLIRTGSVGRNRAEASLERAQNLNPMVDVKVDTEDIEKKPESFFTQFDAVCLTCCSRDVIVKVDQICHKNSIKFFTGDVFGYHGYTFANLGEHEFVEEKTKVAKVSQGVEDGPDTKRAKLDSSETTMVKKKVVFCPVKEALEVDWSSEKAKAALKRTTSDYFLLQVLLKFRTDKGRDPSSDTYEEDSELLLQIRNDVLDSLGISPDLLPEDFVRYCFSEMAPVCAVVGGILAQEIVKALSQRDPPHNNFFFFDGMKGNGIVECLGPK
T2 sequence (Q9UBT2 whole entry): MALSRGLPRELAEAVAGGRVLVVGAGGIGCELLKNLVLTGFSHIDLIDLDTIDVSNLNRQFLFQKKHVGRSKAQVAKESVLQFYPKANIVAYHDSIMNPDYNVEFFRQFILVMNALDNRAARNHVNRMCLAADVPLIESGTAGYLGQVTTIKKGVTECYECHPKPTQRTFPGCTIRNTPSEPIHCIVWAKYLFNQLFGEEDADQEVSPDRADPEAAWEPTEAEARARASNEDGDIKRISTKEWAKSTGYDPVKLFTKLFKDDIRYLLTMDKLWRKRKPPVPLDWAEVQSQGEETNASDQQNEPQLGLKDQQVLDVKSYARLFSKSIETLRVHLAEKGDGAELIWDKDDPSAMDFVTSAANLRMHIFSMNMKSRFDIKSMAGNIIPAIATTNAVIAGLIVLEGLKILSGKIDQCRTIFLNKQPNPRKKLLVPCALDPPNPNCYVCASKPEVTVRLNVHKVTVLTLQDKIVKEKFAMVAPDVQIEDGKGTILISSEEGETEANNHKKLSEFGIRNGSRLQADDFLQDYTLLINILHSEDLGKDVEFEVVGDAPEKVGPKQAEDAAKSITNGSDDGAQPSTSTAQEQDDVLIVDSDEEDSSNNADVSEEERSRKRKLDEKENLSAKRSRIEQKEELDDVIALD

[6] = target: T2, SUMO-activating enzyme; experiment: blockers of SAE1/SAE2–UBC9 SUMO transfer – biochemical, HTRF, uHTS, primary screen (AID 2006); format: protein-complex assay
[7] = target: T3, Protein RecA (Mycobacterium tuberculosis, UniProt P9WHJ3); experiment: RecA Intein Measured in Biochemical System Using Plate Reader - 2047-02_Inhibitor_Dose_DryPowder_Activity. [Related pubchem assays (depositor defined):AID2223]; design: species or system Mycobacterium tuberculosis H37Rv
T3 sequence (P9WHJ3 whole entry): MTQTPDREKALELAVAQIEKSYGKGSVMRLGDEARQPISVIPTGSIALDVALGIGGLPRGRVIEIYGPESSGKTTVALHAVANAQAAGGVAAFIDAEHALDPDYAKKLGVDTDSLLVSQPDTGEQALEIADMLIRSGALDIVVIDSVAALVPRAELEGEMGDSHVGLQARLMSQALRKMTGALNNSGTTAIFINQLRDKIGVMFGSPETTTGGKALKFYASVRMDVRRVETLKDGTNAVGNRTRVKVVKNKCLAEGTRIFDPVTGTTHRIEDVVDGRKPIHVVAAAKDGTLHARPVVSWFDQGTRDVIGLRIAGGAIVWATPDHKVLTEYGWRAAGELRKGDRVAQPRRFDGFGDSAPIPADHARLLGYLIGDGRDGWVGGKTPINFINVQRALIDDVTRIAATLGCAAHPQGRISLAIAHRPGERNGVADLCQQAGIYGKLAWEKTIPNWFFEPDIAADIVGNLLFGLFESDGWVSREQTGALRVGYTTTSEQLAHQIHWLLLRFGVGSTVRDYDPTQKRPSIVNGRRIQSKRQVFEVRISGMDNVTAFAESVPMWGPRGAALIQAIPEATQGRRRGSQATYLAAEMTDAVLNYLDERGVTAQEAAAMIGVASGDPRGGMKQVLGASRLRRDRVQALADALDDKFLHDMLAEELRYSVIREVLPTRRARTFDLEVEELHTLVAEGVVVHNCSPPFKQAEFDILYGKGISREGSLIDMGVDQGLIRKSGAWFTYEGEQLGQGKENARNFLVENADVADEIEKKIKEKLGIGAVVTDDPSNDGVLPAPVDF

[8] = THP-1 cell cytotoxicity, dose response, cytotoxicity control for non-replicating M. tuberculosis project (AID 489025); format: functional
[9] = Vero E6 cell cytotoxicity, dose response, cytotoxicity control for non-replicating M. tuberculosis project, secondary assay (AID 492998); format: functional, VeroE6; details: Vero C1008
[10] = target: T3, Protein RecA; experiment: GFP-RecA MOA-DTT Measured in Biochemical System Using Plate Reader - 2047-05_Inhibitor_Dose_DryPowder_Activity. [Related pubchem assays (depositor defined):AID2223]; design: species or system Mycobacterium tuberculosis H37Rv
[11] = cells; format: functional
[12] = target: T4, Replicative DNA helicase DnaB (Mycobacterium tuberculosis, UniProt P9WMR3); experiment: DnaB intein splicing inhibitors, dose response, biochemical, cell-free fluorescence (AID 449749); format: functional
T4 sequence (P9WMR3 whole entry): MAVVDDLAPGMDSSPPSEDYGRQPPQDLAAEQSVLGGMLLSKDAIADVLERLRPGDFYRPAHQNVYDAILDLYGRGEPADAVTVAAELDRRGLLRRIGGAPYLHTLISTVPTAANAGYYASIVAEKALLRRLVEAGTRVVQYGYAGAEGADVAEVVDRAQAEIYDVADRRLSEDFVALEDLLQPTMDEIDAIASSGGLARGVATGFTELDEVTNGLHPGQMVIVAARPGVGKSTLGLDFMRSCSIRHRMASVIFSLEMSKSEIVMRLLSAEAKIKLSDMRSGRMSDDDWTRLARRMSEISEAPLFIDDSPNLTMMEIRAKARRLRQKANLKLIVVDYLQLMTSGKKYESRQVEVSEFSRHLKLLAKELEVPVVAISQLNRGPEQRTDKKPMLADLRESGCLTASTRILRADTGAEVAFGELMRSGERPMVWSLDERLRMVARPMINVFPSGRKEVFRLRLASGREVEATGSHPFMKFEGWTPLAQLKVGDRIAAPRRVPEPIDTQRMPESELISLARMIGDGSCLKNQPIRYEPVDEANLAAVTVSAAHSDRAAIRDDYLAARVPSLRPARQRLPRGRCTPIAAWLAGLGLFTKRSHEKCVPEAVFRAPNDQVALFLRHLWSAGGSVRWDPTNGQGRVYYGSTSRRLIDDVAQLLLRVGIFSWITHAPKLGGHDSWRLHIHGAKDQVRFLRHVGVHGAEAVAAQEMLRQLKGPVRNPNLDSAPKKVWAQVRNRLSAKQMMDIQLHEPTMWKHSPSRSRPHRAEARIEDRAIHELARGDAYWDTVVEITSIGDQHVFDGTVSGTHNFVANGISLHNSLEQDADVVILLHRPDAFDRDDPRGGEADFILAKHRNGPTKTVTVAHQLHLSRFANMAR

[13] = target: T4, Replicative DNA helicase DnaB; experiment: DnaB Intein secondary assay Measured in Biochemical System Using Plate Reader - 2047-04_Inhibitor_Dose_DryPowder_Activity. [Related pubchem assays (depositor defined):AID2223]
[14] = target: T5, Microphthalmia-associated transcription factor (Homo sapiens, UniProt O75030); experiment: reducers of TRPM1 reporter luminescence, concentration series – cell-based, SK-MEL-5, cherry-picked, set 3, MITF inhibitor project, dose response (AID 493073); format: functional;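 further: SK-MEL-5 melanoma cells with luciferase driven by the MITF target TRPM1 promoter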
T5 sequence (O75030 whole entry): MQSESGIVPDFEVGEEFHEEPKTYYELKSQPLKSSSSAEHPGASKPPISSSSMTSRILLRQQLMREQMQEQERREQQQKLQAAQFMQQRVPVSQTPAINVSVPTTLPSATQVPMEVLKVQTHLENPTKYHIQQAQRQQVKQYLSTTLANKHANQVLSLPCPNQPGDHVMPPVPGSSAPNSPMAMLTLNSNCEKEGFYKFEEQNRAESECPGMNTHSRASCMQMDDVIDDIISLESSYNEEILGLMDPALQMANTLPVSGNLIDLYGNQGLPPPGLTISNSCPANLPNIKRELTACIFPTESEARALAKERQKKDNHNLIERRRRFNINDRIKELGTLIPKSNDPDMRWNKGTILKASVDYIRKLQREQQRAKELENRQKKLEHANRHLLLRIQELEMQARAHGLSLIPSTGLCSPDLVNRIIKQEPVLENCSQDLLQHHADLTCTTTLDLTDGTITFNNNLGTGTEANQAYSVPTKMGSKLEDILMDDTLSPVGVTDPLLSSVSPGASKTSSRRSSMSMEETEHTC

[15] = target: Nonstructural protein 1 (Influenza A virus, UniProt Q194T2); format: functional, Influenza A virus (A/California/07/2009(H1N1))
Nonstructural protein 1, sequence (Q194T2 whole entry): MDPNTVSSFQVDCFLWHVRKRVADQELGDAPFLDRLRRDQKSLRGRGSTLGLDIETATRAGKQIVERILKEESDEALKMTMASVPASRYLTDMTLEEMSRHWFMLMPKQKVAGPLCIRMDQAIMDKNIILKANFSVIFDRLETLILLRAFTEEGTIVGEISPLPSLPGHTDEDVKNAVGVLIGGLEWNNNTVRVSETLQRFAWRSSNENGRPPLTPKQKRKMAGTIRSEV

[16] = Intein inhibitors as potential Tuberculosis drugs, a cytotoxicity screen. [Related pubchem assays (depositor defined):AID2221, AID2223, AID434968, AID435010, AID449749, AID449750, AID489010]; format: functional
[17] = target: T3, Protein RecA; experiment: Fluorescence Cell-Free Homogeneous Dose Retest to Identify Inhibitors of RecA-Intein Splicing Activity. [Related pubchem assays (depositor defined):AID2097, AID2223, AID489010, AID492950]; format: functional
[18] = target: T6, Tyrosine-protein phosphatase non-receptor type 22 (Homo sapiens, UniProt Q9Y2R2); experiment: SAR LYP1 Fluorescent Assay using OMFP substrate for In Vitro dose response studies - Set 2. [Related pubchem assays (depositor defined):AID1779, AID1784, AID2140, AID449726, AID488869]; format: functional
T6 sequence (Q9Y2R2 whole entry): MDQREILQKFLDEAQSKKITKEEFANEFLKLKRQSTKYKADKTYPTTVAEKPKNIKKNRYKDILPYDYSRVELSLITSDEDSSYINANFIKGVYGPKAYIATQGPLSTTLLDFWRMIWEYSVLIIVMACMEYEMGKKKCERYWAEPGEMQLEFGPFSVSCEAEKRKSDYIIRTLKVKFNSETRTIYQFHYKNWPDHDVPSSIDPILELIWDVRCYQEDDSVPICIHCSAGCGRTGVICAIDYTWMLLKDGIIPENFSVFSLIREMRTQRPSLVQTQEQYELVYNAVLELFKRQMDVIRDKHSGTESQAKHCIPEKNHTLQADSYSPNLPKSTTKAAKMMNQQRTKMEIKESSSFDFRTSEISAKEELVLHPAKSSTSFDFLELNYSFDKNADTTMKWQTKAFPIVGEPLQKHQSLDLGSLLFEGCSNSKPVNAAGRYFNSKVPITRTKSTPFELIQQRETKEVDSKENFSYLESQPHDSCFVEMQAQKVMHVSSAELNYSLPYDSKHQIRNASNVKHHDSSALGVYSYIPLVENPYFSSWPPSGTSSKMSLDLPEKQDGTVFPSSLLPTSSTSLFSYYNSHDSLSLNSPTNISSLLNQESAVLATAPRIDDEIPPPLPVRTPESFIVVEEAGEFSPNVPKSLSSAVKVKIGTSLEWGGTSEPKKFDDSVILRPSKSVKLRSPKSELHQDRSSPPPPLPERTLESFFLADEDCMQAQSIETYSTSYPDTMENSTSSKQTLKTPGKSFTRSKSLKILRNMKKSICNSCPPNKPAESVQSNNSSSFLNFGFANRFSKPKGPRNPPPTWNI

[19] = target: T7, Tyrosine-protein phosphatase non-receptor type 7 (Homo sapiens, UniProt P35236); experiment: inhibition of hematopoietic tyrosine phosphatase HePTP – biochemical, set 2, SAR follow-up (AID 449736); format: functional
T7 sequence (P35236 whole entry): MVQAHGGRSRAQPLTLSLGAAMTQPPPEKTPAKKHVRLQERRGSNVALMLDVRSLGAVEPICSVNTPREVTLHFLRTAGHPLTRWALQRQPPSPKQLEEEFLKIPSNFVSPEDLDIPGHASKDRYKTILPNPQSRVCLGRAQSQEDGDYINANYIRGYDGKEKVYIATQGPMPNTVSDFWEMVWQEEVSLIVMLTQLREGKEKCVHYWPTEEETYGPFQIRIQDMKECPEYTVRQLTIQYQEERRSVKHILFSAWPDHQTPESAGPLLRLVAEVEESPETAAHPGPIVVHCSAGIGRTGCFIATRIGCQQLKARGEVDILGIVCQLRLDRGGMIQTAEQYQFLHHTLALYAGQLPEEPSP

[20] = target: T6, Tyrosine-protein phosphatase non-receptor type 22; experiment: PubChem AID 2140
[21] = target: T6, Tyrosine-protein phosphatase non-receptor type 22; experiment: SAR LYP1 Fluorescent Assay using pCAP substrate for In Vitro dose response studies - Set 2. [Related pubchem assays (depositor defined):AID1779, AID1784, AID2135, AID449727]; format: functional
[22] = target: T6, Tyrosine-protein phosphatase non-receptor type 22; experiment: SAR LYP1 Fluorescent Assay using OMFP substrate for In Vitro dose response studies - Set 3. [Related pubchem assays (depositor defined):AID1779, AID1784, AID2140, AID2686]; format: functional
[23] = target: T6, Tyrosine-protein phosphatase non-receptor type 22; experiment: inhibition of lymphoid tyrosine phosphatase LYP – biochemical, pCAP fluorogenic substrate, fluorescence, set 3, SAR follow-up (AID 449727); format: functional
[24] = target: T6, Tyrosine-protein phosphatase non-receptor type 22; experiment: PubChem AID 2135
[25] = target: Tyrosine-protein phosphatase non-receptor type 12 (Homo sapiens, UniProt Q05209); experiment: SAR Selectivity Analysis of small molecule inhibitors of PEST using pCAP in a fluorescence assay. [Related pubchem assays (depositor defined):AID1779, AID1784, AID2135]; format: functional
Tyrosine-protein phosphatase non-receptor type 12, sequence (Q05209 whole entry): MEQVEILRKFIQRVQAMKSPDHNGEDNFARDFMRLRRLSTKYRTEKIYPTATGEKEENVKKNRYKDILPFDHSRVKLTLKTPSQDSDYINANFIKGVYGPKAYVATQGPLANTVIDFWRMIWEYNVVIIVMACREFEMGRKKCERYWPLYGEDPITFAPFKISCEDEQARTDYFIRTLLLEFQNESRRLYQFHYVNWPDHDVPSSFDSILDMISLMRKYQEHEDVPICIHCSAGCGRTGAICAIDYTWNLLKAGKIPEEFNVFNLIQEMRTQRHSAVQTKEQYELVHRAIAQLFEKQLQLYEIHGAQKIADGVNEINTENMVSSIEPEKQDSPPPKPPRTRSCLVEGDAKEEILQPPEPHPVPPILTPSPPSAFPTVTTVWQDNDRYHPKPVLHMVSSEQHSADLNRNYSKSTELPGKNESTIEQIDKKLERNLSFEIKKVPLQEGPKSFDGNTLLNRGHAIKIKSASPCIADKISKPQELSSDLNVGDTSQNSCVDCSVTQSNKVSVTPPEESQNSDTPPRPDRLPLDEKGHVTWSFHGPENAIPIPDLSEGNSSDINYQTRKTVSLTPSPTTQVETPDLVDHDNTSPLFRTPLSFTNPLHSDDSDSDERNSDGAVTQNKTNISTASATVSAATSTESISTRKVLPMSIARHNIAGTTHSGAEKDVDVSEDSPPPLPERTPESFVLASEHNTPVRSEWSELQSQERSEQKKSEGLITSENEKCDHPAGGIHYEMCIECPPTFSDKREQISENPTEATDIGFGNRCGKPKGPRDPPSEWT

Intestinal-type alkaline phosphatase (Homo sapiens, UniProt P09923), sequence (P09923 whole entry): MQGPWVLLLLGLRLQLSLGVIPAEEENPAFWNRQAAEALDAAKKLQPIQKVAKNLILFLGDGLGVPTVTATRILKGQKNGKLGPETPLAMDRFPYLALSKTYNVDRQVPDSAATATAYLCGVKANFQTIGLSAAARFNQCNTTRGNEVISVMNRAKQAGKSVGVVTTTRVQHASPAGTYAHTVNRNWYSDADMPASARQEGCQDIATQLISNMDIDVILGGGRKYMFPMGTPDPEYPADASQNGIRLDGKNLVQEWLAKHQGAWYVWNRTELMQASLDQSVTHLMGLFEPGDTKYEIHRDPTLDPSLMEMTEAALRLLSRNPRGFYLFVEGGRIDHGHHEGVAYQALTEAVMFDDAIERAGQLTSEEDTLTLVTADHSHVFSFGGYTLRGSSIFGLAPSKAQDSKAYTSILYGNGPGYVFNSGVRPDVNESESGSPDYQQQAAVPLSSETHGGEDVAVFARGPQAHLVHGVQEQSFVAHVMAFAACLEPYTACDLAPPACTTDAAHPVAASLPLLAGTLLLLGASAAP

O=C(CCN1C(=O)/C(=C/c2ccco2)SC1=S)Nc1ccc(C(=O)O)c(O)c1
EC50 [1]: 66.2 µM (active)
IC50 [2]: 56.1 µM (active)
EC50 [3]: 84.9 µM (active)
EC50 [4]: 7.32 µM (active)
IC50 [5]: 1.46 µM (active)
IC50 [6]: 14.3 µM (active)

Cc1ccccc1-n1ncc2c([N+](=O)[O-])cc([N+](=O)[O-])cc21
AC50 [7]: 2.19 µM (active)
CC50 [8]: > 40 µM (active)
CC50 [9]: > 20 µM (active)
AC50 [10]: 232 µM (active)
IC50 [11]: 0.95 µM (active)
AC50 [12]: 3.15 µM (active)
AC50 [13]: 5.7 µM (active)
AC50 [14]: 8.7 µM (active)
IC50 [15]: 31.1 µM (active)
CC50 [16]: 30.8 µM (active)
EC50 [17]: 0.911 µM (active)

COc1cc(/C=C(\C#N)c2ccc(F)cc2)ccc1OCc1ccc(C(=O)O)cc1
IC50 [18]: 35.5 µM (active)
IC50 [19]: 7.01 µM (active)
IC50 [20]: > 100 µM (inactive)
IC50 [21]: 33.9 µM (active)
IC50 [22]: 94.2 µM (active)
IC50 [23]: 61.2 µM (active)
IC50 [24]: 59.2 µM (active)
IC50 [25]: 22.1 µM (active)
